These results are taken from ChEMBL document CHEMBL1201862, “PubChem BioAssay data set” (2004).

Each structure is given as a SMILES string. Values joined by “and” are separate entries in the source; they are usually repeats but may differ in a detail not shown here. Identical values can stand only once. Active and inactive are the calls of the source. A value given as a limit tells only on which side of the number the result lay.

One data set deals with Cytochrome P450 2C19 (Homo sapiens, UniProt P33261). Description: Cytochrome panel assay with activity outcomes. Panel member name: p450-cyp2c19 Compounds with AC50 equal or less than 10 uM are considered active. Type of data set: functional.
Data set [1] can be described thus: NIH3T3 cell viability loss – ATP luminescence, mouse fibroblasts, counter-screen, dose response (AID 2010).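 Further: cells exposed to compound for about 90 hours before reading.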 Format: functional, cell-based.
Data set [2] in a line: Trypanosoma cruzi growth suppression in host cells – NIH3T3 host cells, beta-gal luminescence, confirmation (AID 2044).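 Further: intracellular parasites grown in NIH/3T3 mouse fibroblasts as host cells; luminescent beta-galactosidase reporter signal from transgenic T. cruzi replicating inside host cells; inhibitors lower the luminescence signal.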 Format: functional, cell-based.
Another data set addresses T1, Cytochrome P450 1A2 (Homo sapiens, UniProt P05177).
T1 sequence (P05177 whole entry): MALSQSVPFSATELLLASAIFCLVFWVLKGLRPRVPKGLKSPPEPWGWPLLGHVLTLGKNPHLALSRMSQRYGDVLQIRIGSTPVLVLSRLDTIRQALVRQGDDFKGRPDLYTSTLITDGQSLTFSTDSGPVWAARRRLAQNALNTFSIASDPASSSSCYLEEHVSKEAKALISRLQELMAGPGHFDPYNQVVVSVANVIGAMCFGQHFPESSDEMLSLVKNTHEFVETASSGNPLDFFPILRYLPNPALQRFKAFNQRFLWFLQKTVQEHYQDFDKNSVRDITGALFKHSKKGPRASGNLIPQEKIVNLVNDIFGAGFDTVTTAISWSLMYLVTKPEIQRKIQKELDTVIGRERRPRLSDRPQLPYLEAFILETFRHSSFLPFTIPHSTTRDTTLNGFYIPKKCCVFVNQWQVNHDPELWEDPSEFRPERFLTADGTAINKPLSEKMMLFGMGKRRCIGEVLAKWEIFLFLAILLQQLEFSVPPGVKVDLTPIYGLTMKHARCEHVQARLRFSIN

For a further data set, the target named is Cytochrome P450 2D6 (Homo sapiens, UniProt P10635).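 Further: CYP2D6 member of a cytochrome P450 panel assay.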
The next data set concerns the target Cytochrome P450 2C9 (Homo sapiens, UniProt P11712).

Cytochrome P450 2D6, sequence (P10635 whole entry): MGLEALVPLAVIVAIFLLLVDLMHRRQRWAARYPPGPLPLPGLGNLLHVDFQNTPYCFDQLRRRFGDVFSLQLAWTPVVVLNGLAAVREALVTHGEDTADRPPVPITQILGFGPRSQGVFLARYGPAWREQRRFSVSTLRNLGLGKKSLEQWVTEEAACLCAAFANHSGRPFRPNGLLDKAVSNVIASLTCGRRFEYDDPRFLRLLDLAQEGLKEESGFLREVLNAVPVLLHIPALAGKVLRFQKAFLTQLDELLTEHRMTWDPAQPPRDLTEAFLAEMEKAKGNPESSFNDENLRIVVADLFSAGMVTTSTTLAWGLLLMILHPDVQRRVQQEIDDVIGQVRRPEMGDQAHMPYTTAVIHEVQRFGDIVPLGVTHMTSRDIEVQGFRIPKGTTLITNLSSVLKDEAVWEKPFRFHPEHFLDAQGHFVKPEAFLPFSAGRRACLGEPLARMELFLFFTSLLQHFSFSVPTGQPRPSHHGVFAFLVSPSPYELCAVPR
Cytochrome P450 2C9, sequence (P11712 whole entry): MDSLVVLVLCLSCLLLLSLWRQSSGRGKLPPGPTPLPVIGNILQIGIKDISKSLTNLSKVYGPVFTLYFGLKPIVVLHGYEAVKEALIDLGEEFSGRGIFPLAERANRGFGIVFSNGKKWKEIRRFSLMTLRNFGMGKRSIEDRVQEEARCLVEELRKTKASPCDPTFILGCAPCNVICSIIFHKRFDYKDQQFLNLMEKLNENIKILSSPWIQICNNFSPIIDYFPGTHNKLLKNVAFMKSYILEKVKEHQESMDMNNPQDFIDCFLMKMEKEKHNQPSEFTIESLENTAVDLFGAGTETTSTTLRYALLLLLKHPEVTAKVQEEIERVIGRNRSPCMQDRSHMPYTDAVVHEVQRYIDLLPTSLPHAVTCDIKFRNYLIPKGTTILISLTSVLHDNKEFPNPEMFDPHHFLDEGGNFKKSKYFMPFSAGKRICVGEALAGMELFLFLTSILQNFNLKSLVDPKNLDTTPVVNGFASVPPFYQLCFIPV
Cytochrome P450 2C19, sequence (P33261 whole entry): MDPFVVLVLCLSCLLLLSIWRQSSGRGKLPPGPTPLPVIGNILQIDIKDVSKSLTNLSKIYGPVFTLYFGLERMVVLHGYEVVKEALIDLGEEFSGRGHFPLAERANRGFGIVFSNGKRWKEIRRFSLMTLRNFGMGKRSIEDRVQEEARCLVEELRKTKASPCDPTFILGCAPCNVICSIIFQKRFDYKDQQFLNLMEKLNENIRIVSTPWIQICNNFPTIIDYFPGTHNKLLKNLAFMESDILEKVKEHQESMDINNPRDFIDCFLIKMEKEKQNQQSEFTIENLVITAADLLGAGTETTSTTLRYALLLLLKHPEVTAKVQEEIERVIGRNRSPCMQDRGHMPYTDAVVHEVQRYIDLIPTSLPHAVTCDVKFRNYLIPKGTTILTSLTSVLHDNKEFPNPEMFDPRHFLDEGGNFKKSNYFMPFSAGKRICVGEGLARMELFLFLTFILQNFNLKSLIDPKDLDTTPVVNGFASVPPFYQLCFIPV

By AC50 is commonly meant the concentration at which the activity in the assay is half-maximal. In the case of `O=c1[nH]n(-c2cccc(Cl)c2)c2ncccc12`, the AC50 on Cytochrome P450 2C19 (read-out: AC50) is 39.8 µM (inconclusive).
A word on the EC50: it is the concentration that produces a half-maximal response. As to `CC(=O)NCCC(=O)Nc1nc(-c2ccc3ccccc3c2)cs1`, the values for the EC50 in data set [1] and in data set [2] were > 60 µM (not active) and 2 µM (active), respectively.
For the compound `COc1ccc2c(c1)c(C(=O)N/N=C/c1cccc(Br)c1)c(C)n2C`, the EC50 in data set [1] is > 60 µM (not active); in data set [2], 0.324 µM (active).
Regarding `CN(C)c1ccc(/C=C2/C(=O)N(c3ccc([N+](=O)[O-])cc3)N=C2N2CCOCC2)cc1`, the AC50 at Cytochrome P450 2C19 (read-out: AC50) was 0.0224 µM (inconclusive).
As for `Cc1cnc(CNc2ncnc3ccc(-c4ccc(C(=O)N(C)C)cc4)cc23)cn1`, the AC50 at Cytochrome P450 1A2 was 15.8 µM (inconclusive).
Turning to `CCCCCCCNC(=O)c1cc(-c2ccncc2)nc2ccccc12`, the EC50 in data set [1] was > 60 µM (not active); in data set [2], 2.98 µM (active).
Take `CCNc1ncc2nc(-c3ccc(Cl)cc3)c(=O)n(C)c2n1`: the AC50 at Cytochrome P450 2D6 was 25.1 µM (inconclusive).
For the compound `COc1cccc(NC(=O)CSc2nnc(CN3CCOCC3)n2C)c1`, the AC50 at Cytochrome P450 2C19 (read-out: AC50) was 28.2 µM (inconclusive).
For `Cc1cc(C)n(-c2nc(NC(C)C)nc(NC(C)C)n2)n1`, at Cytochrome P450 2C19 (read-out: AC50), the AC50 was 35.5 µM (inconclusive).
`Cc1cccc(CNc2nc(-c3c(C)noc3C)nc3ccccc23)c1`: the AC50 at Cytochrome P450 2C19 (read-out: AC50) is 3.16 µM (inconclusive); at Cytochrome P450 2C9 it was 0.631 µM (inconclusive).
As for `Cc1nc2cnc(N3CCN(C)CC3)nc2n(CCC#N)c1=O`, on Cytochrome P450 1A2, the AC50 was 12.6 µM (inconclusive).
As to `CC(C)c1cc(C(C)C)c(S(=O)(=O)N2c3ccccc3[C@@]3(Br)C[C@H]4C(=O)N[C@@H](Cc5ccccc5)C(=O)N4[C@@H]23)c(C(C)C)c1`, the EC50 was > 60 µM (not active) in data set [1] and 2.08 µM (active) in data set [2].
`CCn1c(=O)c2c(nc3n2CCS3)n(C)c1=O`: the AC50 at Cytochrome P450 2C19 (read-out: AC50) was 10 µM (inconclusive); at Cytochrome P450 2C9, 0.00891 µM (inconclusive).
Turning to `CN(C)CCCNc1c2c(nc3ccc(Cl)cc13)CCCC2`, the concentration at half-maximal activity (AC50) at Cytochrome P450 1A2 is 3.16 µM (inconclusive).
On to `Cc1nnc(SCC(=O)Nc2nccs2)nc1O`, for which the AC50 at Cytochrome P450 2C19 (read-out: AC50) is 10 µM (inconclusive); at Cytochrome P450 2C9, 10 µM (inconclusive); at Cytochrome P450 1A2, 31.6 µM (inconclusive).
With `C[N+](C)([O-])CCC=C1c2ccccc2CCc2ccccc21` [AMITRIPTYLINOXIDE], the concentration at half-maximal activity (AC50) on Cytochrome P450 1A2 was 0.794 µM (inconclusive).
Take `Cc1nc(NC(=O)c2ccccc2)sc1-c1csc(Nc2ccc(Cl)cc2Cl)n1`: the AC50 on Cytochrome P450 2D6 is 12.6 µM (inconclusive).
Take `COc1cc(CCN2C(=O)c3cccc4cccc(c34)C2=O)c(S(=O)(=O)N2CCC(C)CC2)cc1OC`: the EC50 is > 60 µM (not active) in data set [1] and 1.51 µM (active) in data set [2].
Regarding `O=C(Cn1cnc2c(oc3ccccc32)c1=O)NCc1ccco1`, the concentration at half-maximal activity (AC50) is 20 µM (inconclusive) at Cytochrome P450 2C19 (read-out: AC50), 8.91 µM (inconclusive) on Cytochrome P450 2C9 and 14.1 µM (inconclusive) on Cytochrome P450 1A2.
For `O=C(O)c1ccccc1Nc1ccccc1` [FENAMIC ACID], the concentration at half-maximal activity (AC50) at Cytochrome P450 2C9 and on Cytochrome P450 1A2 was 15.8 µM (inconclusive) throughout.
With `CCn1ccc(C(=O)Oc2ccc(Cl)cc2)n1`, the AC50 at Cytochrome P450 2C19 (read-out: AC50) was 11.2 µM (inconclusive); at Cytochrome P450 2D6 it was 22.4 µM (inconclusive); on Cytochrome P450 2C9, 8.91 µM (inconclusive).
Consider `CCNc1ncc2nc(C)c(=O)n(C[C@H]3CCCO3)c2n1`, for which, on Cytochrome P450 2D6, the AC50 was 39.8 µM (inconclusive).
For the compound `Cc1cccc(NC(=O)CSc2nc3ccccc3c3nc(CCc4c(C)n[nH]c4C)nn23)c1`, on Cytochrome P450 2D6, the AC50 was 8.91 µM (inconclusive).
For the compound `Cc1cn2c(-c3ccncc3)nnc2s1`, at Cytochrome P450 1A2, the AC50 was 10 µM (inconclusive).
As for `CCC(C)(C(=O)NC1CCCC1)N(C(=O)c1ccccn1)c1ccccc1` (stereo not drawn), the AC50 on Cytochrome P450 2C19 (read-out: AC50) was 8.91 µM (inconclusive); on Cytochrome P450 1A2, 10 µM (inconclusive).
Take `CN1CCN(c2ncc3ncc(=O)n(CCC#N)c3n2)CC1`: the figures for the AC50 result on Cytochrome P450 2C19 and at Cytochrome P450 1A2 were “inconclusive” and 31.6 µM (inconclusive), respectively.
Regarding `c1ccc2c(c1)ncn2-c1ccc(-c2ccnc(-c3ccncc3)n2)cc1`, at Cytochrome P450 2D6, the AC50 was 1.12 µM (inconclusive).
`CC(C)C(=O)NCCn1ccc2ccccc21`: the AC50 on Cytochrome P450 1A2 was 20 µM (inconclusive).
With `COc1ccc(OC)c2sc(N3CCN(C(=O)c4ccc([N+](=O)[O-])s4)CC3)nc12`, the EC50 in data set [1] is > 60 µM (not active); in data set [2] it was 1.8 µM (active).
As for `Cc1ccc(C(=O)Nc2cccc(-c3cnc4ccccc4n3)c2)cc1`, the half-maximal activity concentration (AC50) on Cytochrome P450 2C19 (read-out: AC50) is 1.58 µM (inconclusive); on Cytochrome P450 2C9 it was 1 µM (inconclusive).
Regarding `c1cncc(CNc2ncncc2-c2ccc3c(c2)OCO3)c1`, the AC50 at Cytochrome P450 2C9 was 0.794 µM (inconclusive).
With `NC(=O)[C@@H]1CCCN1Cc1ccc2c(c1)OCO2`, the figures for the AC50 at Cytochrome P450 2C19 (read-out: AC50), at Cytochrome P450 2D6 and at Cytochrome P450 1A2 were 5.01 µM (inconclusive), 3.98 µM (inconclusive) and 3.16 µM (inconclusive), respectively.
With `O=C(NCCOC12CC3CC(CC(C3)C1)C2)c1cccc(Br)c1`, the AC50 on Cytochrome P450 1A2 was 17.8 µM (inconclusive).
`Cc1oc(-c2ccccc2Cl)nc1CN1CCCCC1c1cccnc1` (stereo not drawn): the EC50 in data set [1] was > 60 µM (inconclusive); in data set [2], 1.2 µM (active).
For `Cc1cccc(-c2nsc(SCC(=O)Nc3nccs3)n2)c1`, the AC50 on Cytochrome P450 2D6 was 8.91 µM (inconclusive).
As for `O=c1cnc2cnc(Nc3ccccc3)nc2n1Cc1cccs1`, the AC50 at Cytochrome P450 2C9 was 3.16 µM (inconclusive).
As for `O=S(=O)(c1ccc(F)cc1)n1ccc(-c2cnc(-c3ccccc3)s2)n1`, the AC50 on Cytochrome P450 2D6 is 17.8 µM (inconclusive).
With `Cc1ccc(Cl)cc1N=C(S)N(Cc1ccccc1)Cc1cccnc1`, the results for the EC50 in data set [1] and in data set [2] were > 60 µM (not active) and 0.785 µM (active), respectively.
Regarding `CCOC(=O)N1CCN(S(=O)(=O)c2ccc3ncc(C(=O)O)c(O)c3c2)CC1`, the AC50 at Cytochrome P450 2C9 was 15.8 µM (inconclusive).
As to `Cc1ccc(-c2nnc(-c3ccccc3S(=O)(=O)Cc3ccc(Cl)cc3)o2)cc1`, the figures for the AC50 on Cytochrome P450 2C19 (read-out: AC50), on Cytochrome P450 2D6 and on Cytochrome P450 2C9 were 7.94 µM (inconclusive), 0.0355 µM (inconclusive) and 1.78 µM (inconclusive), respectively.
Regarding `O=C(c1cnccn1)N1CCC2(CCN(Cc3ccncc3)CC2)CC1`, on Cytochrome P450 1A2, the AC50 was 25.1 µM (inconclusive).
`COC(=O)[C@@]1(Cc2ccc(F)cc2)[C@H]2c3cc(C(=O)N(C)C)n(CCO)c3C[C@H]2CN1C(=O)c1ccccc1`: the AC50 at Cytochrome P450 2C19 (read-out: AC50) and at Cytochrome P450 2D6 was 25.1 µM (inconclusive) each time.
On to `CCOC(=O)CNc1nc(C(C)(C)C)nc2c1nnn2Cc1ccccc1Cl`, for which the values for the EC50 in data set [1] and in data set [2] were > 60 µM (not active) and 3.11 µM (active), respectively.
For `CCOc1cc(NC(=O)CC(C)C)c(OCC)cc1N=C(S)Nc1cccc(C)c1`, at Cytochrome P450 2C19 (read-out: AC50), the AC50 is 2.51 µM (inconclusive).
As for `CC(CC(=O)N1CCN(c2ccc(C(F)(F)F)cn2)CC1)n1ccnc1` (stereo not drawn), the figures for the EC50 in data set [1] and in data set [2] were > 60 µM (not active) and 1.51 µM (active), respectively.
On to `CCCCNC(=O)C1CC(=O)N(CCC(C)C)C1` (stereo not drawn), for which the AC50 on Cytochrome P450 2C19 (read-out: AC50) was 25.1 µM (inconclusive).
As to `O=C(N1CCOCC1)N1CCN(c2ccccc2)CC1`, the AC50 on Cytochrome P450 2C9 is 4.47 µM (inconclusive).
With `COc1ccc(OC)c(CNc2ccc3c(c2)CCC3)c1`, the EC50 in data set [1] is > 60 µM (not active); in data set [2], 2.08 µM (active).
As to `COc1ccc(Cc2nccc3cc(OC)c(OC)cc23)cc1OC` [PAPAVERINE], the AC50 is 10 µM (inconclusive) and 3.98 µM (inconclusive) on Cytochrome P450 2C19 (read-out: AC50); 10 µM (inconclusive) and 25.1 µM (inconclusive) on Cytochrome P450 2D6; 10 µM (inconclusive) and 25.1 µM (inconclusive) at Cytochrome P450 1A2.
Turning to `COc1cc(C(=O)Nc2nc(-c3ccc(F)cc3)cs2)ccc1OCC(=O)N1CCOCC1`, the EC50 in data set [1] was > 60 µM (not active); in data set [2], 1.36 µM (active).
`COC(=O)CNC(=O)CN1C(=O)N(c2ccc(Cl)cc2)C(N(O)C(=O)Nc2ccc(Cl)cc2)C1(C)C` (stereo not drawn): the AC50 on Cytochrome P450 2D6 is 15.8 µM (inconclusive); on Cytochrome P450 1A2 it was 22.4 µM (inconclusive).
Consider `O=C(CN1CCC(c2nc3ccccc3s2)CC1)NCc1ccccc1`, for which the EC50 in data set [1] was > 60 µM (not active); in data set [2] it was 0.237 µM (active).
With `COC(=O)[C@@]1(Cc2ccc(F)cc2)[C@H]2c3cc(C(=O)N4CCCC4)n(CCN4CNCC4=O)c3C[C@H]2CN1C(=O)c1ccccc1`, the AC50 is 39.8 µM (inconclusive) on Cytochrome P450 2C19 (read-out: AC50), 39.8 µM (inconclusive) on Cytochrome P450 2D6 and 15.8 µM (inconclusive) at Cytochrome P450 1A2.
Consider `COc1ccc2c(c1)s/c(=N/C(=O)CS(=O)(=O)c1ccc(F)cc1)n2C`, for which the EC50 was > 30 µM (not active) in data set [1] and 0.328 µM (active) in data set [2].
In the case of `CCOC(=O)c1cc(C#N)c(N2CCN(C)CC2)nc1-c1ccccc1`, the EC50 is > 60 µM (not active) in data set [1] and 1.3 µM (active) in data set [2].
Take `Cc1ccc(C)c(C(=O)CN2C(=O)c3ccccc3S2(=O)=O)c1`: the half-maximal activity concentration (AC50) on Cytochrome P450 2D6 was 0.631 µM (inconclusive).
